Test results as given in patent publication US9708314B2, “Heterocyclic amide compound” (NISSAN CHEMICAL INDUSTRIES, LTD., priority 2013, dated 2017).

Tests used:
Type in all cases: in vivo
[1] = test system: Echinochloa crus-galli var. crus-galli; assay: Test Example 3: herbicidal effect by application to foliage (Wagner pot, water depth 0.1-0.5 cm); conditions: Nineteenth Table; application to foliage; application herbicide amount 320 g/ha
Outline: (§1)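 Post-emergence foliar application at a stated g/ha rate to plants grown 14 days from seed in alluvial soil, greenhouse 25–30 °C. Visual score after 3 weeks: 0 (≤5% effect) through 5 (≥90%).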

[2] = test system: Leptochloa chinensis; assay: as above; conditions: Nineteenth Table; application to foliage; application herbicide amount 320 g/ha
Outline: as §1

[3] = test system: Abutilon theophrasti; assay: Test Example 4: herbicidal effect by application to foliage (diluvial soil, plastic box); conditions: for M: herbicidal effect on Abutilon theophrasti: application to foliage, application herbicide amount 320 g/ha
Outline: (§2)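 Seeds sown in sterilized diluvial soil, covered ~1.5 cm, grown 14 days in greenhouse at 25° C. to 30° C. Emulsion formulation diluted in water to set rate (g/ha) and sprayed onto stems and leaves. Effect scored visually 3 weeks later on 0–5 scale (5 = ≥90% herbicidal ratio, 0 = ≤5%).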

[4] = test system: Alopecurus myosuroides; assay: as above; conditions: for J: herbicidal effect on Alopecurus myosuroides: application to foliage, application herbicide amount 320 g/ha
Outline: as §2

[5] = test system: Apera spica-venti.; assay: as above; conditions: for L: herbicidal effect on Apera spica-venti.: application to foliage, application herbicide amount 320 g/ha
Outline: as §2

[6] = test system: Avena fatua; assay: as above; conditions: for I: herbicidal effect on Avena fatua: application to foliage, application herbicide amount 320 g/ha
Outline: as §2

[7] = test system: Chenopodium album; assay: as above; conditions: for O: herbicidal effect on Chenopodium album: application to foliage, application herbicide amount 320 g/ha
Outline: as §2

[8] = test system: Digitaria ciliaris; assay: as above; conditions: for F: herbicidal effect on Digitaria ciliaris: application to foliage, application herbicide amount 320 g/ha
Outline: as §2

[9] = test system: Echinochloa crus-galli var. crus-galli; assay: as above; conditions: for H: herbicidal effect on Echinochloa crus-galli var. crus-galli: application to foliage, application herbicide amount 320 g/ha
Outline: as §2

[10] = test system: Galium spurium; assay: as above; conditions: for Q: herbicidal effect on Galium spurium: application to foliage, application herbicide amount 320 g/ha
Outline: as §2

[11] = test system: Lolium multiflorum Lam.; assay: as above; conditions: for K: herbicidal effect on Lolium multiflorum Lam.: application to foliage, application herbicide amount 320 g/ha
Outline: as §2

[12] = test system: Setaria viridis; assay: as above; conditions: for G: herbicidal effect on Setaria viridis: application to foliage, application herbicide amount 320 g/ha
Outline: as §2

[13] = test system: Beta vulgaris ssp. vulgaris; assay: Test Example 4: effect on crop by application to foliage (diluvial soil, plastic box); conditions: for f: effect on crop, Beta vulgaris ssp. vulgaris: application to foliage, application herbicide amount 320 g/ha
Outline: as §2

[14] = test system: Brassica campestris L.; assay: as above; conditions: for g: effect on crop, Brassica campestris L.: application to foliage, application herbicide amount 320 g/ha
Outline: as §2

[15] = test system: Glycine max; assay: as above; conditions: for d: effect on crop, Glycine max: application to foliage, application herbicide amount 320 g/ha
Outline: as §2

[16] = test system: Triticum aestivum; assay: as above; conditions: for e: effect on crop, Triticum aestivum: application to foliage, application herbicide amount 320 g/ha
Outline: as §2

[17] = test system: Zea mays; assay: as above; conditions: for c: effect on crop, Zea mays: application to foliage, application herbicide amount 320 g/ha
Outline: as §2

[18] = test system: directly sowed Oryza sativa; assay: as above; conditions: for b: effect on crop, directly sowed Oryza sativa: application to foliage, application herbicide amount 320 g/ha
Outline: as §2

[19] = Application herbicide amount 320 g/ha
[20] = Application herbicide amount 320 g/ha, effect on crop

Row | Structure (SMILES) | H (herbicidal effect grade) [1] | D (herbicidal effect grade) [2] | M: herbicidal effect on Abutilon theophrasti [3] | J: herbicidal effect on Alopecurus myosuroides [4] | L: herbicidal effect on Apera spica-venti. [5] | I: herbicidal effect on Avena fatua [6] | O: herbicidal effect on Chenopodium album [7] | F: herbicidal effect on Digitaria ciliaris [8] | H: herbicidal effect on Echinochloa crus-galli var. crus-galli [9] | Q: herbicidal effect on Galium spurium [10] | K: herbicidal effect on Lolium multiflorum Lam. [11] | G: herbicidal effect on Setaria viridis [12] | f: effect on crop, Beta vulgaris ssp. vulgaris [13] | g: effect on crop, Brassica campestris L. [14] | d: effect on crop, Glycine max [15] | e: effect on crop, Triticum aestivum [16] | c: effect on crop, Zea mays [17] | b: effect on crop, directly sowed Oryza sativa [18] | also measured
1 | Cc1nnc(NC(=O)c2ccc(C(F)(F)F)n3c(CC(=O)NC(C)C)nnc23)o1 [1-061] | 5 (Herbicidal ratio of 90% or more (almost completely withered)) | 4 (Herbicidal ratio of 70% or more and less than 90%) | – | – | – | – | – | – | – | – | – | – | – | – | – | – | – | – | M [3, 19]: 5 (Herbicidal ratio of 90% or more (almost completely withered)); J [4, 19]: 1 (Herbicidal ratio of 5% or more and less than 20%); L [5, 19]: 1 (Herbicidal ratio of 5% or more and less than 20%); I [6, 19]: 3 (Herbicidal ratio of 40% or more and less than 70%); O [7, 19]: 5 (Herbicidal ratio of 90% or more (almost completely withered)); F [8, 19]: 3 (Herbicidal ratio of 40% or more and less than 70%); H [9, 19]: 4 (Herbicidal ratio of 70% or more and less than 90%); Q [10, 19]: 4 (Herbicidal ratio of 70% or more and less than 90%); K [11, 19]: 1 (Herbicidal ratio of 5% or more and less than 20%); G [12, 19]: 3 (Herbicidal ratio of 40% or more and less than 70%); f [13, 20]: 4 (Herbicidal ratio of 70% or more and less than 90%); g [14, 20]: 4 (Herbicidal ratio of 70% or more and less than 90%); c [15, 20]: 1 (Herbicidal ratio of 5% or more and less than 20%); e [16, 20]: 0 (Herbicidal ratio of 5% or less (almost no effect)); b [17, 20]: 1 (Herbicidal ratio of 5% or more and less than 20%); d [18, 20]: 4 (Herbicidal ratio of 70% or more and less than 90%)
2 | C=CCc1nnc2c(C(=O)Nc3nnco3)ccc(C(F)(F)F)n12 [1-158] | 5 (Herbicidal ratio of 90% or more (almost completely withered)) | 4 (Herbicidal ratio of 70% or more and less than 90%) | 4 (Herbicidal ratio of 70% or more and less than 90%) | 1 (Herbicidal ratio of 5% or more and less than 20%) | 3 (Herbicidal ratio of 40% or more and less than 70%) | 3 (Herbicidal ratio of 40% or more and less than 70%) | 5 (Herbicidal ratio of 90% or more (almost completely withered)) | 5 (Herbicidal ratio of 90% or more (almost completely withered)) | 5 (Herbicidal ratio of 90% or more (almost completely withered)) | 3 (Herbicidal ratio of 40% or more and less than 70%) | 2 (Herbicidal ratio of 20% or more and less than 40%) | 4 (Herbicidal ratio of 70% or more and less than 90%) | 5 (Herbicidal ratio of 90% or more (almost completely withered)) | 3 (Herbicidal ratio of 40% or more and less than 70%) | 4 (Herbicidal ratio of 70% or more and less than 90%) | 2 (Herbicidal ratio of 20% or more and less than 40%) | 0 (Herbicidal ratio of 5% or less (almost no effect)) | 0 (Herbicidal ratio of 5% or less (almost no effect)) | –
3 | Cc1nnc(NC(=O)c2ccc(C(F)(F)F)n3c(CC(F)(F)F)nnc23)o1 [1-162] | 4 (Herbicidal ratio of 70% or more and less than 90%) | 4 (Herbicidal ratio of 70% or more and less than 90%) | 3 (Herbicidal ratio of 40% or more and less than 70%) | 1 (Herbicidal ratio of 5% or more and less than 20%) | 0 (Herbicidal ratio of 5% or less (almost no effect)) | 1 (Herbicidal ratio of 5% or more and less than 20%) | 4 (Herbicidal ratio of 70% or more and less than 90%) | 3 (Herbicidal ratio of 40% or more and less than 70%) | 4 (Herbicidal ratio of 70% or more and less than 90%) | 2 (Herbicidal ratio of 20% or more and less than 40%) | 1 (Herbicidal ratio of 5% or more and less than 20%) | 1 (Herbicidal ratio of 5% or more and less than 20%) | 3 (Herbicidal ratio of 40% or more and less than 70%) | 1 (Herbicidal ratio of 5% or more and less than 20%) | 3 (Herbicidal ratio of 40% or more and less than 70%) | 0 (Herbicidal ratio of 5% or less (almost no effect)) | 0 (Herbicidal ratio of 5% or less (almost no effect)) | 0 (Herbicidal ratio of 5% or less (almost no effect)) | –
4 | C#CCN(C)c1nnc2c(C(=O)Nc3nnco3)ccc(C(F)(F)F)n12 [1-163] | 5 (Herbicidal ratio of 90% or more (almost completely withered)) | 5 (Herbicidal ratio of 90% or more (almost completely withered)) | 4 (Herbicidal ratio of 70% or more and less than 90%) | 1 (Herbicidal ratio of 5% or more and less than 20%) | 1 (Herbicidal ratio of 5% or more and less than 20%) | 2 (Herbicidal ratio of 20% or more and less than 40%) | 5 (Herbicidal ratio of 90% or more (almost completely withered)) | 4 (Herbicidal ratio of 70% or more and less than 90%) | 5 (Herbicidal ratio of 90% or more (almost completely withered)) | 3 (Herbicidal ratio of 40% or more and less than 70%) | 1 (Herbicidal ratio of 5% or more and less than 20%) | 3 (Herbicidal ratio of 40% or more and less than 70%) | 4 (Herbicidal ratio of 70% or more and less than 90%) | 3 (Herbicidal ratio of 40% or more and less than 70%) | 4 (Herbicidal ratio of 70% or more and less than 90%) | 1 (Herbicidal ratio of 5% or more and less than 20%) | 0 (Herbicidal ratio of 5% or less (almost no effect)) | 0 (Herbicidal ratio of 5% or less (almost no effect)) | –
5 | CN(CCC#N)c1nnc2c(C(=O)Nc3nnco3)ccc(C(F)(F)F)n12 [1-164] | 5 (Herbicidal ratio of 90% or more (almost completely withered)) | 5 (Herbicidal ratio of 90% or more (almost completely withered)) | 4 (Herbicidal ratio of 70% or more and less than 90%) | 1 (Herbicidal ratio of 5% or more and less than 20%) | 3 (Herbicidal ratio of 40% or more and less than 70%) | 3 (Herbicidal ratio of 40% or more and less than 70%) | 5 (Herbicidal ratio of 90% or more (almost completely withered)) | 5 (Herbicidal ratio of 90% or more (almost completely withered)) | 5 (Herbicidal ratio of 90% or more (almost completely withered)) | 4 (Herbicidal ratio of 70% or more and less than 90%) | 1 (Herbicidal ratio of 5% or more and less than 20%) | 5 (Herbicidal ratio of 90% or more (almost completely withered)) | 5 (Herbicidal ratio of 90% or more (almost completely withered)) | 4 (Herbicidal ratio of 70% or more and less than 90%) | 5 (Herbicidal ratio of 90% or more (almost completely withered)) | 3 (Herbicidal ratio of 40% or more and less than 70%) | 0 (Herbicidal ratio of 5% or less (almost no effect)) | 4 (Herbicidal ratio of 70% or more and less than 90%) | –
